Results on 1 compound are retold here after US20230381330A1, “ENZYME-ACTIVATED SERUM EXTENDED HALF-LIFE THERAPEUTIC CONJUGATES” (Avacta Life Sciences Limited, priority 2020, published 2023).

The subject of data set [1] is J774A.1 mouse macrophage cell line cells. In words: LDH release (pyroptosis) in J774A.1 cells with or without rhFAPα. The format is cell-based. To be noted: serial 10-fold dilutions, rhFAPα 25 nM, 24 hours, FIG. 17. The procedure: In further in vitro studies, several conjugates were tested for their ability to induce pyroptosis in J774 cells in the absence and presence of FAPα. Briefly, J774A.1 mouse macrophage cell line cells were cultured in triplicate wells with serial 10-fold dilutions of either VbP (data not shown) or one of the FAP-activated I-DASH inhibitors (Hu IgG1 Fc-6325, Hu IgG1-6325, MSA-6325, SQT-Gly V.2-6325, SQT-Gly CF-6325 or SQT-Gly CG-6325) in the presence or absence of rhFAPα at a final concentration of 25 nM for 24 hours. Each experiment included an untreated control. Following the incubation, the levels of lactate dehydrogenase (LDH, a marker of pyroptosis) released into culture supernatants were measured using the CytoTox 96 Non-radioactive Cytotoxicity Assay according to the manufacturer's instructions. The results are shown in FIG. 17 as fold-increase in LDH release.
On the technique in general: LDH leaks from cells whose membrane has failed.

Data set [2] concerns mouse tumor model. In words: EC50 / maximum tolerated dose studies in mice. To be noted: FIG. 4A/4B. The class given is in vivo. Here is the method: (§1) Half-maximal effective concentration (EC50) studies were undertaken to examine the difference between mice and rats administered talabostat alone (FIG. 4A) and mice and rats administered the therapeutic conjugates comprising talabostat (FIG. 4B). When talabostat is administered alone, the talabostat maximum tolerated dose (MTD) is about 3 mg/m^2 in a mouse tumor model and 0.18 mg/m^2 in rats. That is, the talabostat MTD is 1/17 the tumor model EC50 (FIG. 4A). […] Talabostat, as part of the therapeutic conjugate, can be administered to rats and mice at therapeutically effective doses.

In data set [3] the test system is G-CSF. To be noted: mouse, in vivo; cited from earlier work.
The test system of data set [4] is rats. Description: EC50 / maximum tolerated dose studies in rats. The format is in vivo, rat. The note with it: talabostat administered alone, FIG. 4A. Here is the method: as §1

With `CC(C)[C@H](N)C(=O)N1CCC[C@H]1B(O)O` [talabostat, Val-boroPro], the “differentiation of fold-increase in LDH release with vs without FAPα” value in data set [1] is recorded as “not the case”. The “maximum tolerated dose (MTD)” value is listed as “about 3 mg/m^2” in data set [2] and 0.18 mg/m^2 in data set [4] (rats). Further, the “serum G-CSF response” value in data set [3] is listed as “large serum G-CSF response”. In addition, the “MTD as fraction of the tumor model EC50” value in data set [4] is on record as 1/17.
